How the values were obtained:
[1] = Pharmacokinetics in tumor free Balb/C mice; type: in vivo; settings: Released from Compound 9; single injection 20 mg/kg Compound 9, Balb/C mice, plasma
From the text: Pharmacokinetic analysis was done using non-compartmental analysis (WinNonlin).

[2] = Solubility in aqueous saline solution

In the case of `CCc1c2c(nc3ccc(O)cc13)-c1cc3c(c(=O)n1C2)COC(=O)[C@]3(O)CC`, the “Terminal t 1/2” value [1] is reported as 14.2 h and the “Solubility in Saline” value [2] is reported as “^a7-ethyl-10-hydroxycamptothecin is not soluble in saline”.

— US20120171201A1
